Legend:
Assay type in all cases: cell-based
[1] = target: vanilloid receptor 1 (VR1/TRPV1 receptor) (Homo sapiens, UniProt Q8NER1); experiment: Human VR1/TRPV1 receptor inhibition after pH stimulus; settings: for inhibition at 5 µM: compound 5 μM; for inhibition at 10 µM: compound 10 μM
vanilloid receptor (VR1) = target: T1, vanilloid receptor (VR1) (Homo sapiens, UniProt Q8NER1); experiment: FLIPR Ca2+ influx assay with CHO K1 cells transfected with the human VR1 gene, capsaicin stimulus (Pharmacological method II); settings: for Ki / Ki (human) Capsaicin: capsaicin 100 nM stimulus, Ki from IC50 by Cheng-Prusoff
T1 construct: expressed in transfected cells; host or cells: CHO K1 cells (ECACC), stably transfected
Method: In addition, compounds according to the invention of the general formulae I, Ia, Ib, I′, I″, I′″ may be preferred which, in a FLIPR assay with CHO K1 cells which have been transfected with the human gene VR1, in a concentration of less than 2000 nM, preferably of less than 1000 nM, particularly preferably of less then 300 nM, very particularly preferably of less than 100 nM, still more preferably of less than 75 nM, further preferably of less than 50 nM, most preferably of less than 10 nM, bring about 50% displacement of capsaicin which is present in a concentration of 100 nM.
In this FLIPR assay, the influx of Ca^2+ is quantified with the assistance of a Ca^2+-sensitive dye (type Fluo-4, Molecular Probes Europe BV, Leiden, Netherlands) in a Fluorescent Imaging Plate Reader (FLIPR, Molecular Devices, Sunnyvale, USA) as described below.
The agonistic or antagonistic action of the substances to be investigated on the vanilloid receptor (VR1) may also be determined with the following assay. According to this assay, the influx of Ca^2+ through the channel is quantified with the assistance of a Ca^2+-sensitive dye (type Fluo-4, Molecular Probes Europe BV, Leiden, Netherlands) in a Fluorescent Imaging Plate Reader (FLIPR, Molecular Devices, Sunnyvale, USA).
Chinese hamster ovary cells (CHO K1 cells, European Collection of Cell Cultures (ECACC), Great Britain) are stably transfected with the VR1 gene. For functional investigations, these cells are plated out onto poly-D-lysine-coated, black 96-hole plates with a clear base (BD Biosciences, Heidelberg, Germany) at a density of 25,000 cells/hole. The cells are incubated overnight at 37° C. and 5% CO2 in a culture medium (Ham's Nutrient Mixture F12, 10 vol. % FCS (foetal calf serum), 18 μg/mL L-proline). On the following day, the cells are incubated with Fluo-4 (Fluo-4 2 μM, Pluronic F127 0.01 vol. %, Molecular Probes in HBSS (Hank's buffered saline solution), Gibco Invitrogen GmbH, Karlsruhe, Germany) for 30 minutes at 37° C. The plates are then washed 3 times with HBSS buffer and, after a further 15 minutes' incubation at room temperature, used for Ca^2+ measurement in the FLIPR. Ca^2+-dependent fluorescence is here measured before and after the addition of the substances to be investigated (wavelength λex=488 nm, λem=540 nm). Quantification proceeds by measuring the highest fluorescence intensity (FC, fluorescence counts) over time.
The FLIPR protocol consists of 2 additions of substance. The substances to be tested (10 μM) are firstly pipetted onto the cells and Ca^2+ influx is compared with the control (capsaicin 10 μM) (% activation relative to the Ca^2+ signal after addition of 10 μM of capsaicin). After 5 minutes' incubation, 100 nM of capsaicin are added and the influx of Ca^2+ is likewise determined.
The percentage inhibition in comparison with the maximum achievable inhibition with 10 μM capsaicin is calculated.
On the basis of the percentage displacement by different concentrations of the compounds to be tested of the general formula I, IC50 inhibition concentrations which bring about 50% displacement of capsaicin were calculated. Ki values for the test substances were obtained by conversion using the Cheng-Prusoff equation (Cheng, Prusoff; Biochem. Pharmacol. 22, 3099-3108, 1973).

[2] = target: T2, vanilloid receptor 1 (VR1/TRPV1) of the rat species (Rattus norvegicus, UniProt O35433); experiment: FLIPR Ca2+ influx assay on rat dorsal root ganglia cells, capsaicin stimulus (Pharmacological method I); settings: capsaicin 100 nM stimulus, Ki from IC50 by Cheng-Prusoff
T2 construct: The spinal column is removed from decapitated rats; from tissue; host or cells: primary cells from rat dorsal root ganglia (DRG)
Method: The agonistic or antagonistic action of the substances to be investigated on the vanilloid receptor 1 (VR1/TRPV1) of the rat species may be determined with the following assay. According to this assay, the influx of Ca^2+ through the receptor channel is quantified with the assistance of a Ca^2+-sensitive dye (type Fluo-4, Molecular Probes Europe BV, Leiden, Netherlands) in a Fluorescent Imaging Plate Reader (FLIPR, Molecular Devices, Sunnyvale, USA).
Complete medium: 50 mL HAMS F12 Nutrient Mixture (Gibco Invitrogen GmbH, Karlsruhe, Germany) with 10 vol. % FCS (foetal calf serum, Gibco Invitrogen GmbH, Karlsruhe, Germany, heat-inactivated);
Cell culture plate: poly-D-lysine-coated, black 96-hole plates with clear base (96 well black/clear plate, BD Biosciences, Heidelberg, Germany) are additionally coated with laminin (Gibco Invitrogen GmbH, Karlsruhe, Germany), by diluting laminin to a concentration of 100 μg/mL with PBS (Ca—Mg-free PBS, Gibco Invitrogen GmbH, Karlsruhe, Germany). Aliquots with a concentration of 100 μg/mL of laminin are taken and stored at −20° C. The aliquots are diluted with PBS in the ratio of 1:10 to 10 μg/mL of laminin and 50 μL of the solution is pipetted into each well of the cell culture plate. The cell culture plates are incubated for at least two hours at 37° C., the supernatant solution is aspirated and the wells are each washed twice with PBS. The coated cell culture plates are stored with supernatant PBS and this is only removed directly prior to introduction of the cells.
The spinal column is removed from decapitated rats and this is placed directly in cold HBSS buffer (Hank's buffered saline solution, Gibco Invitrogen GmbH, Karlsruhe, Germany), i.e. located in an ice bath, combined with 1 vol. % (percent by volume) of an AA solution (antibiotic/antimycotic solution, PAA, Pasching, Austria). The spinal column is severed lengthwise and removed from the spinal canal together with fasciae. The dorsal root ganglia (DRGs) are then removed and in turn stored in cold HBSS buffer combined with 1 vol. % of an AA solution. The DRGs, from which blood residues and spinal nerves have been completely removed, are in each case transferred into 500 μL cold collagenase type 2 (PAA, Pasching, Austria) and incubated for 35 minutes at 37° C. After the addition of 2.5 vol. % trypsin (PAA, Pasching, Austria) incubation at 37° C. is continued for a further 10 minutes. After complete incubation, the enzyme solution is carefully pipetted off and the remaining DRGs are combined in each case with 500 μL of complete medium.
The DRGs are in each case repeatedly suspended, drawn through cannulas no. 1, no. 12 and no. 16 by means of a syringe and transferred into 50 mL Falcon microtubes, these being filled to 15 mL with complete medium. The content of each Falcon microtube is in each case filtered through a 70 μm Falcon filter insert and centrifuged for 10 minutes at 1200 revolutions and room temperature. The resultant pellet is in each case redissolved in 250 μL of complete medium and the cell count is determined.
The number of cells in the suspension is adjusted to 3×10^5 per mL and a 150 μL portion of this suspension is in each case placed in a well of the cell culture plates which have been coated as described above. The plates are left to stand in the incubator for two to three days at 37° C., 5 vol. % CO2 and 95% relative atmospheric humidity.
The cells are then loaded with 2 μM Fluo-4 and 0.01 vol. % Pluronic F127 (Molecular Probes Europe BV, Leiden, Netherlands) in HBSS buffer (Hank's buffered saline solution, Gibco Invitrogen GmbH, Karlsruhe, Germany) for 30 min at 37° C., washed 3×with HBSS buffer and, after a further 15 minutes' incubation at room temperature, used for Ca^2+ measurement in the FLIPR assay. Ca^2+-dependent fluorescence is here measured before and after the addition of substances (λex=488 nm, λem=540 nm). […]

T2 sequence (O35433 whole entry): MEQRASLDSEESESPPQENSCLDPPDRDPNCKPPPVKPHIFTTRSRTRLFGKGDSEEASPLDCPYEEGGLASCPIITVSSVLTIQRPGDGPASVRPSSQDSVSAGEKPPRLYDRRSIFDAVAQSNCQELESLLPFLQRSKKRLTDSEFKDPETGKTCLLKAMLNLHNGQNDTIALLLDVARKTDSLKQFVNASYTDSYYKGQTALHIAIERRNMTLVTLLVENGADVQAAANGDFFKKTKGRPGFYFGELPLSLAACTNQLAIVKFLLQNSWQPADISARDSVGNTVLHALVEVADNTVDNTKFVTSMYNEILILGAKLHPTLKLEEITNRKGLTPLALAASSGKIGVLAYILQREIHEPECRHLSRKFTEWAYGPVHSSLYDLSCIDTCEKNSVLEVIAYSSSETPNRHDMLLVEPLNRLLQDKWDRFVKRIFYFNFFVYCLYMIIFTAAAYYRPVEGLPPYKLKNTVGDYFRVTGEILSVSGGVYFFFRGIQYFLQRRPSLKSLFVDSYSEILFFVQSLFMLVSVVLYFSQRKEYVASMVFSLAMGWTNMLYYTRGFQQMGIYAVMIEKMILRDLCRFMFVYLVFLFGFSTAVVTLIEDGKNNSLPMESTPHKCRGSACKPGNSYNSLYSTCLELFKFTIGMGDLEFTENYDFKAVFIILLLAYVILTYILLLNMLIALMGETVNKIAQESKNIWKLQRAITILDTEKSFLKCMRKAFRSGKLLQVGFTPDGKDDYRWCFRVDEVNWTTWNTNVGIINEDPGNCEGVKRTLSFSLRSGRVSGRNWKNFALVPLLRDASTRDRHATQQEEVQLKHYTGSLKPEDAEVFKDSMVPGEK
Sequence of vanilloid receptor 1 (VR1/TRPV1 receptor) (Q8NER1 whole entry): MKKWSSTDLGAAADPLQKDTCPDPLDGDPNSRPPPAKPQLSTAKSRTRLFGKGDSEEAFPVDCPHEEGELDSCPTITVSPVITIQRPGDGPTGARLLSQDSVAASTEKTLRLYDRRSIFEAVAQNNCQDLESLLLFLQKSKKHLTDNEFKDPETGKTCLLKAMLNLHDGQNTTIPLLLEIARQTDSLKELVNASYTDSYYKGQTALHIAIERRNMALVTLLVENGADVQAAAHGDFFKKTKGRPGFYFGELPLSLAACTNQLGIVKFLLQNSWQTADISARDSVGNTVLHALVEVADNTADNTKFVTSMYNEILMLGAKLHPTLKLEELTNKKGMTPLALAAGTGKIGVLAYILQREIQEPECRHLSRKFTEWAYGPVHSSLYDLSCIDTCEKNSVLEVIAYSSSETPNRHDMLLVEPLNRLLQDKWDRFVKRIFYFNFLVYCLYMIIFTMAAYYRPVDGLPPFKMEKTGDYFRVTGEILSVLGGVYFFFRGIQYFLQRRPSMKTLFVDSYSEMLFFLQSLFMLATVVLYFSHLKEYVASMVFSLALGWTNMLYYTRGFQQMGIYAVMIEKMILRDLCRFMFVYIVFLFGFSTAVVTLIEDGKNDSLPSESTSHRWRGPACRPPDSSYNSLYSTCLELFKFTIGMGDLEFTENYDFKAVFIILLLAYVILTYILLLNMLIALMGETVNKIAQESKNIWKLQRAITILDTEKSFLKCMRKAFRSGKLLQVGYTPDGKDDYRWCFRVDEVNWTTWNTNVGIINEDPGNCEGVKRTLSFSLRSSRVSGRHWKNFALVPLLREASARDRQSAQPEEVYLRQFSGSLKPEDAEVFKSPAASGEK
T1 sequence (Q8NER1 whole entry): as above

Compound	inhibition at 5 µM [1] [%]	inhibition at 10 µM [1] [%]	Ki (vanilloid receptor (VR1)) [nM]	Ki [2] [nM]	inhibition at 1 µM ([1]; compound 1 μM) [%]	IC50 [1] [nM]	Ki (human) Capsaicin (vanilloid receptor (VR1))	IC50 (human) after pH stimulus [1]	inhibition at 0.1 µM (vanilloid receptor (VR1); CHO-K1, capsaicin stimulus, compound 0.1 μM) [%]	inhibition at 1 µM (vanilloid receptor (VR1); CHO-K1, capsaicin stimulus, compound 1 μM) [%]	inhibition at 5 µM (vanilloid receptor (VR1); CHO-K1, capsaicin stimulus, compound 5 μM) [%]
CC(C(=O)NCc1ccc(C(F)(F)F)nc1SC1CCCCC1)c1ccc(N(C)S(C)(=O)=O)c(F)c1 (centres unmarked) [Example 7, N-((2-(cyclohexylthio)-6-(trifluoromethyl)pyridin-3-yl)methyl)-2-(3-fluoro-4-(N-methylmethylsulfonamido)phenyl)propanamide]	0	20	48.1	30.8							
CC(C(=O)NCc1ccc(C(C)(C)C)cc1SC1CCCCC1)c1ccc(N(C)S(C)(=O)=O)c(F)c1 (centres unmarked) [Example 15, N-(4-tert.-butyl-2-(cyclohexylthio)benzyl)-2-(3-fluoro-4-(N-methylmethylsulfonamido)phenyl)propanamide]	6	30	18.3	7.6	0						
CC(=O)N(c1ccc(C(C)C(=O)NCc2ccc(C(F)(F)F)nc2N2CCC(C)CC2)cc1F)S(C)(=O)=O (centres unmarked) [Example 2, 2-(3-fluoro-4-(N-(methylsulfonyl)acetamido)phenyl)-N-((2-(4-methylpiperidin-1-yl)-6-(trifluoromethyl)pyridin-3-yl)methyl)propanamide]			11.9	2.2		947					
CC1CCN(c2nc(C(C)(C)C)ccc2CNC(=O)C(C)c2ccc(N(C)S(C)(=O)=O)c(F)c2)CC1 (centres unmarked) [Example 10, N-((6-tert.-butyl-2-(4-methylpiperidin-1-yl)pyridin-3-yl)methyl)-2-(3-fluoro-4-(N-methylmethylsulfonamido)phenyl)propanamide]	0	11	27.7	2.8							
CC1CCN(c2nc(C(F)(F)F)ccc2CNC(=O)C(C)c2ccc(N(C)S(C)(=O)=O)c(F)c2)CC1 (centres unmarked) [Example 3, 2-(3-fluoro-4-(N-methylmethylsulfonamido)phenyl)-N-((2-(4-methylpiperidin-1-yl)-6-(trifluoromethyl)pyridin-3-yl)methyl)propanamide]	8	16	55.5	20							
CC1CCN(c2cc(C(F)(F)F)ccc2CNC(=O)C(C)c2ccc(N(C)S(C)(=O)=O)c(F)c2)CC1 (centres unmarked) [Example 12, 2-(3-fluoro-4-(N-methylmethylsulfonamido)phenyl)-N-(2-(4-methylpiperidin-1-yl)-4-(trifluoromethyl)benzyl)propanamide]	0	43	7.8	5							
CCN(c1ccc([C@H](C)C(=O)NCc2ccc(C(C)(C)C)cc2)cc1F)S(C)(=O)=O [Example 6, (S)—N-(4-tert.-butylbenzyl)-2-(4-(N-ethylmethylsulfonamido)-3-fluorophenyl)propanamide]	0	21		66.8			Ne				
CC1CCN(c2cc(C(C)(C)C)ccc2CNC(=O)C(C)c2ccc(N(C)S(C)(=O)=O)c(F)c2)CC1 (centres unmarked) [Example 14, N-(4-tert.-butyl-2-(4-methylpiperidin-1-yl)benzyl)-2-(3-fluoro-4-(N-methylmethylsulfonamido)phenyl)propanamide]	9	43	13.1	3							
CC(C(=O)NCc1ccc(C(C)(C)C)cc1)c1ccc(N(C)S(C)(=O)=O)c(F)c1 (centres unmarked) [Example 4, N-(4-tert.-butylbenzyl)-2-(3-fluoro-4-(N-methylmethylsulfonamido)phenyl)propanamide]	0	22		50.4			Ne				
CC(C(=O)NCc1ccc(C(C)(C)C)nc1SC1CCCCC1)c1ccc(N(C)S(C)(=O)=O)c(F)c1 (centres unmarked) [Example 11, N-((6-tert.-butyl-2-(cyclohexylthio)pyridin-3-yl)methyl)-2-(3-fluoro-4-(N-methylmethylsulfonamido)phenyl)propanamide]				16.8				ne	0	33	56
CC(C(=O)NCc1ccc(C(F)(F)F)cc1SC1CCCCC1)c1ccc(N(C)S(C)(=O)=O)c(F)c1 (centres unmarked) [Example 13, N-(2-(cyclohexylthio)-4-(trifluoromethyl)benzyl)-2-(3-fluoro-4-(N-methylmethylsulfonamido)phenyl)propanamide]			33.1	5.2				ne			
CCC(=O)N(c1ccccc1)C1CCN(c2nc(C(F)(F)F)ccc2CNC(=O)C(C)c2ccc(N(C(=O)CC)S(C)(=O)=O)c(F)c2)CC1 (centres unmarked) [Example 1, N-(2-fluoro-4-(1-oxo-1-((2-(4-(N-phenylpropionamido)piperidin-1-yl)-6-(trifluoromethyl)pyridin-3-yl)methylamino)propan-2-yl)phenyl)-N-(methylsulfonyl)propionamide]			69.1	19.5		525					

— patent US8642623B2, “Vanilloid receptor ligand compounds, pharmaceutical compositions containing them, a method of producing them and the use thereof to treat pain and various other conditions” (Gruenenthal GmbH, priority 2007, dated 2014)
